Laboratory results reported in patent publication US10894784B2, “Heteroarylbenzimidazole compounds” (BAYER PHARMA AKTIENGESELLSCHAFT, priority 2015, dated 2021).

biological target: TBK1 (Homo sapiens (Human), UniProt Q9UHD2); test: TBK1 low ATP kinase assay (in vitro assay 1); format: biochemical; conditions: in vitro assay 1, read-out: TBK1 low ATP kinase assay IC50
Sequence (Q9UHD2 whole entry): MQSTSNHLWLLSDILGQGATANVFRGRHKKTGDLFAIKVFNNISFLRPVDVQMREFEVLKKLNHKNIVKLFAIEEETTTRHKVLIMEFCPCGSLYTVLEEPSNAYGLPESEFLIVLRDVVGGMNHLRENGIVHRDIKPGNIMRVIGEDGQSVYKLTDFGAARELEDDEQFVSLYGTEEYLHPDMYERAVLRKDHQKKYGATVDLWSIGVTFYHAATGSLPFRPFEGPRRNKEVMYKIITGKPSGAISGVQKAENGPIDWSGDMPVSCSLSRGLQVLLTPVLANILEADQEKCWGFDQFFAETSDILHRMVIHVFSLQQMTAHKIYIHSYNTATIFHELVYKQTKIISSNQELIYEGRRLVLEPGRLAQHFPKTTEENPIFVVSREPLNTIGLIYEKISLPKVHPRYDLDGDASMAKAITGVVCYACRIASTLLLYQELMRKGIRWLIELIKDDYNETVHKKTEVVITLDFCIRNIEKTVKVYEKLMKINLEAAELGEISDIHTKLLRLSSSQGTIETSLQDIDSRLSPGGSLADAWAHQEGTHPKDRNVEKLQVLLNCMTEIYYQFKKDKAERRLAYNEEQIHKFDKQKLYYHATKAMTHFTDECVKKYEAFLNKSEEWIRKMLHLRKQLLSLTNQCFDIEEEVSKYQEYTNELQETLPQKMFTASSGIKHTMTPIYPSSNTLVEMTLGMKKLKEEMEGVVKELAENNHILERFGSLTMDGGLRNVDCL

Point of comparison: `CC(c1ccnc(Nc2nc3ccc(-c4cc(OCC(F)(F)C(F)(F)F)ncn4)cc3[nH]2)c1)N1CCN(C(=O)[C@@H]2CC2(F)F)CC1` (single isomer, unassigned) [Example 166.05, ((1RS)-2,2-difluorocyclopropyl)(4-{(1R or 1S)-1-[2-({6-[6-(2,2,3,3,3-pentafluoropropoxy)pyrimidin-4-yl]-1H-benzimidazol-2-yl}amino)pyridin-4-yl]ethyl}piperazin-1-yl)methanone], IC50 34.2 nM. Against it:
- CC(c1ccnc(Nc2nc3ccc(-c4cnn(CC5CC5)c4)c(F)c3[nH]2)c1)N1CCN(C(=O)CC(F)(F)F)CC1 (single isomer, unassigned) [Example 121.02] — 14-fold lower, 2.5 nM
- CC(c1ccnc(Nc2nc3ccc(-c4cnn(CC5CC5)c4)c(F)c3[nH]2)c1)N1CCN(C(=O)C2CC2)CC1 (single isomer, unassigned) [Example 121.03, cyclopropyl(4-{(1R or 1S)-1-[2-({6-[1-(cyclopropylmethyl)-1H-pyrazol-4-yl]-7-fluoro-1H-benzimidazol-2-yl}amino)pyridin-4-yl]ethyl}piperazin-1-yl)methanone] — 21-fold lower, 1.6 nM
- CC(c1ccnc(Nc2nc3ccc(-c4cnn(CC5CC5)c4)c(Cl)c3[nH]2)c1)N1CCN(C(=O)OC(C)(C)C)CC1 (single isomer, unassigned) [Example 122.01, tert-butyl 4-{(1R or 1S)-1-[2-({7-chloro-6-[1-(cyclopropylmethyl)-1H-pyrazol-4-yl]-1H-benzimidazol-2-yl}amino)pyridin-4-yl]ethyl}piperazine-1-carboxylate] — 3.7-fold lower, 9.3 nM
- CC(c1ccnc(Nc2nc3ccc(-c4cnn(CC5CC5)c4)c(Cl)c3[nH]2)c1)N1CCN(C(=O)CC(F)(F)F)CC1 (single isomer, unassigned) [Example 122.02, 1-(4-{(1R or 1S)-1-[2-({7-chloro-6-[1-(cyclopropylmethyl)-1H-pyrazol-4-yl]-1H-benzimidazol-2-yl}amino)pyridin-4-yl]ethyl}piperazin-1-yl)-3,3,3-trifluoropropan-1-one] — 29-fold lower, 1.2 nM
- CC(c1ccnc(Nc2nc3ccc(-c4cnn(CC5CC5)c4)c(Cl)c3[nH]2)c1)N1CCN(C(=O)C2CC2)CC1 (single isomer, unassigned) [Example 122.03, (4-{(1R or 1S)-1-[2-({7-chloro-6-[1-(cyclopropylmethyl)-1H-pyrazol-4-yl]-1H-benzimidazol-2-yl}amino)pyridin-4-yl]ethyl}piperazin-1-yl)(cyclopropyl)methanone] — 31-fold lower, 1.1 nM
- CC(c1ccnc(Nc2nc3ccc(-c4ccnn4C)cc3[nH]2)c1)N1CCN(C(=O)OC(C)(C)C)CC1 (single isomer, unassigned) [Example 123.01, tert-butyl 4-[(1R or 1S)-1-(2-{[6-(1-methyl-1H-pyrazol-5-yl)-1H-benzimidazol-2-yl]amino}pyridin-4-yl)ethyl]piperazine-1-carboxylate] — within 1.5-fold, 36 nM
- CC(c1ccnc(Nc2nc3ccc(-c4ccnn4C)cc3[nH]2)c1)N1CCN(C(=O)CC(F)(F)F)CC1 (single isomer, unassigned) [Example 123.02, 3,3,3-trifluoro-1-{4-[(1R or 1S)-1-(2-{[6-(1-methyl-1H-pyrazol-5-yl)-1H-benzimidazol-2-yl]amino}pyridin-4-yl)ethyl]piperazin-1-yl}propan-1-one] — within 1.5-fold, 35 nM
- CC(c1ccnc(Nc2nc3ccc(-c4ccnn4C)cc3[nH]2)c1)N1CCN(C(=O)C2CC2)CC1 (single isomer, unassigned) [Example 123.03, cyclopropyl{4-[(1R or 1S)-1-(2-{[6-(1-methyl-1H-pyrazol-5-yl)-1H-benzimidazol-2-yl]amino}pyridin-4-yl)ethyl]piperazin-1-yl}methanone] — within 1.5-fold, 26 nM
- CC(c1ccnc(Nc2nc3ccc(-c4cc(N5CC(C(F)(F)F)C5)ncn4)cc3[nH]2)c1)N1CCN(C(=O)OC(C)(C)C)CC1 (single isomer, unassigned) [Example 164.01, tert-butyl 4-[(1R or 1S)-1-{2-[(6-{6-[3-(trifluoromethyl)azetidin-1-yl]pyrimidin-4-yl}-1H-benzimidazol-2-yl)amino]pyridin-4-yl}ethyl]piperazine-1-carboxylate] — 6.2-fold lower, 5.48 nM
- CC(c1ccnc(Nc2nc3ccc(-c4cc(N5CC(C(F)(F)F)C5)ncn4)cc3[nH]2)c1)N1CCN(C(=O)CC(F)(F)F)CC1 (single isomer, unassigned) [Example 164.02, 3,3,3-trifluoro-1-{4-[(1R or 1S)-1-{2-[(6-{6-[3-(trifluoromethyl)azetidin-1-yl]pyrimidin-4-yl}-1H-benzimidazol-2-yl)amino]pyridin-4-yl}ethyl]piperazin-1-yl}propan-1-one] — 36-fold lower, 0.943 nM
- CC(c1ccnc(Nc2nc3ccc(-c4cc(N5CC(C(F)(F)F)C5)ncn4)cc3[nH]2)c1)N1CCN(C(=O)C2CC2)CC1 (single isomer, unassigned) [Example 164.03, cyclopropyl{4-[(1R or 1S)-1-{2-[(6-{6-[3-(trifluoromethyl)azetidin-1-yl]pyrimidin-4-yl}-1H-benzimidazol-2-yl)amino]pyridin-4-yl}ethyl]piperazin-1-yl}methanone] — 61-fold lower, 0.558 nM
- CC(c1ccnc(Nc2nc3ccc(-c4cc(N5CC(C(F)(F)F)C5)ncn4)cc3[nH]2)c1)N1CCN(C(=O)C2(C(F)(F)F)CC2)CC1 (single isomer, unassigned) [Example 164.04, {4-[(1R or 1S)-1-{2-[(6-{6-[3-(trifluoromethyl)azetidin-1-yl]pyrimidin-4-yl}-1H-benzimidazol-2-yl)amino]pyridin-4-yl}ethyl]piperazin-1-yl}[1-(trifluoromethyl)cyclopropyl]methanone] — 41-fold lower, 0.832 nM
- CC(c1ccnc(Nc2nc3ccc(-c4cc(N5CC(C(F)(F)F)C5)ncn4)cc3[nH]2)c1)N1CCN(C(=O)[C@@H]2CC2(F)F)CC1 (single isomer, unassigned) [Example 164.05, ((1RS)-2,2-difluorocyclopropyl){4-[(1R or 1S)-1-[2-[(6-{6-[3-(trifluoromethyl)azetidin-1-yl]pyrimidin-4-yl}-1H-benzimidazol-2-yl)amino]pyridin-4-yl}ethyl]piperazin-1-yl}methanone] — 60-fold lower, 0.566 nM
- CC(c1ccnc(Nc2nc3ccc(-c4cc(OCC(C)(F)F)ncn4)cc3[nH]2)c1)N1CCN(C(=O)CC(F)(F)F)CC1 (single isomer, unassigned) [Example 165.02, 1-(4-{(1R or 1S)-1-[2-({6-[6-(2,2-difluoropropoxy)pyrimidin-4-yl]-1H-benzimidazol-2-yl}amino)pyridin-4-yl]ethyl}piperazin-1-yl)-3,3,3-trifluoropropan-1-one] — 20-fold lower, 1.71 nM
- CC(c1ccnc(Nc2nc3ccc(-c4cc(OCC(C)(F)F)ncn4)cc3[nH]2)c1)N1CCN(C(=O)C2CC2)CC1 (single isomer, unassigned) [Example 165.03, cyclopropyl(4-{(1R or 1S)-1-[2-({6-[6-(2,2-difluoropropoxy)pyrimidin-4-yl]-1H-benzimidazol-2-yl}amino)pyridin-4-yl]ethyl}piperazin-1-yl)methanone] — 19-fold lower, 1.79 nM
- CC(c1ccnc(Nc2nc3ccc(-c4cc(OCC(F)(F)C(F)(F)F)ncn4)cc3[nH]2)c1)N1CCN(C(=O)OC(C)(C)C)CC1 (single isomer, unassigned) [Example 166.01, tert-butyl 4-{(1R or 1S)-1-[2-({6-[6-(2,2,3,3,3-pentafluoropropoxy)pyrimidin-4-yl]-1H-benzimidazol-2-yl}amino)pyridin-4-yl]ethyl}piperazine-1-carboxylate] — 8.8-fold higher, 300 nM
- CC(c1ccnc(Nc2nc3ccc(-c4cc(OCC(F)(F)C(F)(F)F)ncn4)cc3[nH]2)c1)N1CCN(C(=O)CC(F)(F)F)CC1 (single isomer, unassigned) [Example 166.02, 3,3,3-trifluoro-1-(4-{(1R or 1S)-1-[2-({6-[6-(2,2,3,3,3-pentafluoropropoxy)pyrimidin-4-yl]-1H-benzimidazol-2-yl}amino)pyridin-4-yl]ethyl}piperazin-1-yl)propan-1-one] — 1.7-fold lower, 20.5 nM
- CC(c1ccnc(Nc2nc3ccc(-c4cc(OCC(F)(F)C(F)(F)F)ncn4)cc3[nH]2)c1)N1CCN(C(=O)C2CC2)CC1 (single isomer, unassigned) [Example 166.03, cyclopropyl(4-{(1R or 1S)-1-[2-({6-[6-(2,2,3,3,3-pentafluoropropoxy)pyrimidin-4-yl]-1H-benzimidazol-2-yl}amino)pyridin-4-yl]ethyl}piperazin-1-yl)methanone] — 1.6-fold lower, 21.1 nM
- CC(c1ccnc(Nc2nc3ccc(-c4cc(OCC(F)(F)C(F)(F)F)ncn4)cc3[nH]2)c1)N1CCN(C(=O)C2(C(F)(F)F)CC2)CC1 (single isomer, unassigned) [Example 166.04, (4-{(1R or 1S)-1[2-({6-[6-(2,2,3,3,3-pentafluoropropoxy)pyrimidin-4-yl]-1H-benzimidazol-2-yl}amino)pyridin-4-yl]ethyl}piperazin-1-yl)[1-(trifluoromethyl)cyclopropyl]methanone] — 1.6-fold higher, 54.2 nM
- CC(c1ccnc(Nc2nc3ccc(-c4cnn(CC5CC(F)(F)C5)c4)cc3[nH]2)c1)N1CCN(C(=O)CC(F)(F)F)CC1 (single isomer, unassigned) [Example 169.02, 1-{4-[(1R or 1S)-1-{2-[(6-{1-[(3,3-difluorocyclobutyl)methyl]-1H-pyrazol-4-yl}-1H-benzimidazol-2-yl)amino]pyridin-4-yl}ethyl]piperazin-1-yl}-3,3,3-trifluoropropan-1-one] — 2.9-fold lower, 11.6 nM
- CC(c1ccnc(Nc2nc3ccc(-c4cnn(CC5CC(F)(F)C5)c4)cc3[nH]2)c1)N1CCN(C(=O)C2CC2)CC1 (single isomer, unassigned) [Example 169.03, cyclopropyl{4-[(1R or 1S)-1-{2-[(6-{1-[(3,3-difluorocyclobutyl)methyl]-1H-pyrazol-4-yl}-1H-benzimidazol-2-yl)amino]pyridin-4-yl}ethyl]piperazin-1-yl}methanone] — 2.1-fold lower, 16.6 nM
- CC(c1ccnc(Nc2nc3ccc(-c4cnn(C[C@@H]5CC5(Cl)Cl)c4)cc3[nH]2)c1)N1CCN(C(=O)CC(F)(F)F)CC1 (single isomer, unassigned) [Example 170.02, 1-{4-[(1R or 1S)-1-(2-{[6-(1-{[(1RS)-2,2-dichlorocyclopropyl]methyl}-1H-pyrazol-4-yl)-1H-benzimidazol-2-yl]amino}pyridin-4-yl)ethyl]piperazin-1-yl}-3,3,3-trifluoropropan-1-one] — 6.6-fold lower, 5.21 nM
